Test results taken from PMC5701912, “Arylacetamide Deacetylase Is Involved in Vicagrel Bioactivation in Humans” (Frontiers in Pharmacology, 2017).

What was measured:
[1] = target: T1, CES2 (Homo sapiens, UniProt O00748); test: Hydrolase activity by recombinant human CES2; format: in vitro ADME
T1 construct: purchased Cypex Ltd. (Scotland, United Kingdom)
T1 sequence (O00748 27-559): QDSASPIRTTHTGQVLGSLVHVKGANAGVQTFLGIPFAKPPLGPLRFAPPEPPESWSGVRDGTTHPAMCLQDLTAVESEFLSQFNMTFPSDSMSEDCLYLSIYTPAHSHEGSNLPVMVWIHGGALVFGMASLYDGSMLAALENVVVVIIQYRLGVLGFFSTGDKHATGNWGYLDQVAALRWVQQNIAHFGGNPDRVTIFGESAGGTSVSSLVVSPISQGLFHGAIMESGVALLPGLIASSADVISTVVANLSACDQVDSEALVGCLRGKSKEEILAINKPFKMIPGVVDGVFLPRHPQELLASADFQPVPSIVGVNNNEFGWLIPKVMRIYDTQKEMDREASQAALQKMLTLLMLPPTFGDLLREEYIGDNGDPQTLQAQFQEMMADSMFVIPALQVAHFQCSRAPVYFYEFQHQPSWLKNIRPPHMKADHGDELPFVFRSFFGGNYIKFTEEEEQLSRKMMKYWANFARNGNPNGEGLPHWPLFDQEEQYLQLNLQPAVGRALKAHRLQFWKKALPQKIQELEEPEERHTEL
Excerpt: (§1) (1) v = Vmax × S/(Km + S)

[2] = test system: CES2; test: Contribution of CES2 to vicagrel hydrolase activity in HIM (RAF method); format: in vitro ADME, human
Excerpt: (§2) The RAF method was applied as the ratio of activity values to evaluate the contribution of CES2 and AADAC to vicagrel hydrolysis in HIM. […] The following formulas were used to predict the vicagrel hydrolase activities of CES2 (VCES2, HIM), and AADAC (VAADAC, HIM) in HIM:
(2) VCES2, HIM = Vrec−CES2 × RAFCES2, HIM
(§3) V rec-CES2 and V rec-AADAC are the vicagrel hydrolase activities of recombinant CES2 and AADAC, respectively. The following equations were used to calculate the contributions of CES2 and AADAC to vicagrel hydrolase activities in HIM:
(4) CES2 in HIM(%) = (VCES2, HIM/VHIM) × 100
(§4) where the V HIM value is the observed vicagrel hydrolase activities in HIM.

[3] = Hydrolase activity in dog intestine microsomes; format: in vitro ADME
Excerpt: as §1

[4] = Hydrolase activity (kinetics and marker substrates) in human intestine microsomes
Excerpt: as §1

[5] = set-up: method as in Liu et al., 2017; settings: healthy subjects; oral 5 mg vicagrel and 75 mg clopidogrel; ref Liu et al., 2017; cited from earlier work
[6] = target: T2, CES1 (Homo sapiens, UniProt P23141); test: Hydrolase activity by recombinant human CES1; format: in vitro ADME
T2 construct: purchased Cypex Ltd. (Scotland, United Kingdom)
T2 sequence (P23141 18-567): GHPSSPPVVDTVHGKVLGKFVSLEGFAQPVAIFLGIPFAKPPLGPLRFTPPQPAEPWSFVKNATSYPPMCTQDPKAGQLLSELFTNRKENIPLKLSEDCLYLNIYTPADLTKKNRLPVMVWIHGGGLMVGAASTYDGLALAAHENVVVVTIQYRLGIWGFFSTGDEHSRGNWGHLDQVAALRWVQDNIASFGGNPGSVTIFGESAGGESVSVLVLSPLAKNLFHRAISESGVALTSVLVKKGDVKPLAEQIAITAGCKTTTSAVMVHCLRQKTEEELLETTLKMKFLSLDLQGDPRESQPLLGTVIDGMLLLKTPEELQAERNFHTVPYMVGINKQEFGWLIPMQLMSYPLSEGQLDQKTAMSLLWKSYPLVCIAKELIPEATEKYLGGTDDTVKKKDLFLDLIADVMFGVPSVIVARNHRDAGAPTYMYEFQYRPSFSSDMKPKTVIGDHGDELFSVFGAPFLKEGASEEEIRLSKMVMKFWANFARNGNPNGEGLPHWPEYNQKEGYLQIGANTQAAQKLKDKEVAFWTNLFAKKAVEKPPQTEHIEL
Excerpt: as §1

[7] = Hydrolase activity (kinetics and marker substrates) in human liver microsomes; format: in vitro ADME
Excerpt: as §1

[8] = set-up: method as in Liu et al., 2017; settings: healthy subjects, oral vicagrel tablets, during the sampling period; ref Liu et al., 2017; cited from earlier work
[9] = test system: AADAC; test: Contribution of AADAC to vicagrel hydrolase activity in HIM (RAF method); format: in vitro ADME, human; settings: phenacetin as probe
Excerpt: as §2
(3) VAADAC, HIM = Vrec−AADAC × […], HIM
as §3
(5) AADAC in HIM(%) = (VAADAC, HIM/VHIM) × 100
as §4

[10] = set-up: method as in Qiu et al., 2013; settings: rats and beagle dogs, ref Qiu et al., 2013, cited from earlier work
[11] = target: T3, AADAC (Homo sapiens, UniProt P22760); test: Hydrolase activity by recombinant human AADAC
T3 sequence (P22760 1-399): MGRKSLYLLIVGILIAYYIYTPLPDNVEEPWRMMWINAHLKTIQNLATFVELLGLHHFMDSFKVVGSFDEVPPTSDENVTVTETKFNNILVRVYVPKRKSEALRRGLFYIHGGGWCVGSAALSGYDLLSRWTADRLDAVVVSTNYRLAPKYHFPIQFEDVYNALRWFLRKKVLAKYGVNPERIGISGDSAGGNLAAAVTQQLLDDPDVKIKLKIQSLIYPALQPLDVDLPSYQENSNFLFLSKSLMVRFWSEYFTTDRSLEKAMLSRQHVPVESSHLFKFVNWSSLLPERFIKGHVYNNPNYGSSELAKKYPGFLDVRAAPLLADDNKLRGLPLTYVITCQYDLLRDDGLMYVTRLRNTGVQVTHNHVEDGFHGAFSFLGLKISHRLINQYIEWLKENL

## COC(=O)[C@H](c1ccccc1Cl)N1CCc2sc(OC(C)=O)cc2C1 [vicagrel, Vicagrel]
[1]; human, recombinant human CES2, pH 7.4, recombinant CES2, calculated as Vmax/Km, read-out: CLint of vicagrel hydrolysis
  microsomal CLint: 46100 ± 3100 µL/min/mg
[1]; recombinant CES2
  Hydrolase activity (vicagrel), Vrec-CES2: 26.1 nmol/min/mg
[1]; recombinant CES2 0.01 mg/mL, 1 min
  Vmax of vicagrel hydrolysis: 331.2 ± 14.9 nmol/min/mg protein
[2]; HIM, RAF method, procaine as probe
  Contribution of CES2 to vicagrel hydrolysis: 44.2%
[2]; HIM, RAF method, CES2 plus AADAC
  Sum of the contributions of CES2 and AADAC to vicagrel hydrolysis: 97.3%
[2]; Vrec-CES2 × RAFCES2, HIM
  Calculated vicagrel hydrolase activity of CES2 in HIM (VCES2, HIM): 21.2 nmol/min/mg protein
[3]; DIM 0.01 mg/mL, 1 min
  Vmax of vicagrel hydrolysis: 171.4 ± 3.9 nmol/min/mg protein
[3]; dog, dog intestine microsomes, pH 7.4, DIM 0.01 mg/mL, 1 min, read-out: Km of vicagrel hydrolysis
  Km at 1 min: 8.37 ± 0.69 µM
[3]; dog, dog intestine microsomes, pH 7.4, DIM, calculated as Vmax/Km, read-out: CLint of vicagrel hydrolysis
  microsomal CLint: 20500 ± 1300 µL/min/mg
[4]; HIM 0.01 mg/mL, 1 min
  Vmax of vicagrel hydrolysis: 347.2 ± 6.4 nmol/min/mg protein
[4]; human, 1 min, pH 7.4
  Hydrolase activity (vicagrel), VHIM: 48.0 nmol/min/mg
[4]; human, microsomes, pH 7.4
  microsomal CLint: 53100 ± 1040 µL/min/mg
[4]; human, pH 7.4
  Km at 1 min: 6.54 ± 0.45 µM
[5]
  Antiplatelet effects versus clopidogrel: Comparable antiplatelet effects
[6]; human, recombinant human CES1, pH 7.4, recombinant CES1, calculated as Vmax/Km, read-out: CLint of vicagrel hydrolysis
  microsomal CLint: 29000 ± 2300 µL/min/mg
[6]; recombinant CES1
  Hydrolase activity (vicagrel): 17.3 nmol/min/mg
[6]; recombinant CES1 0.01 mg/mL, 2 min
  Vmax of vicagrel hydrolysis: 264.0 ± 16.6 nmol/min/mg protein
[7]; HLM
  Hydrolase activity (vicagrel): 96.5 nmol/min/mg
[7]; HLM 0.01 mg/mL, 1 min
  Vmax of vicagrel hydrolysis: 917.6 ± 23.5 nmol/min/mg protein
[7]; human, human liver microsomes, pH 7.4, HLM 0.01 mg/mL, 1 min, formation of 2-oxo-clopidogrel, read-out: Km of vicagrel hydrolysis
  Km at 1 min: 7.18 ± 0.66 µM
[8]
  Parent drug in human plasma: undetectable
[9]
  Contribution of AADAC to vicagrel hydrolysis: approximately 53%
[9]; listed as Vicagrel
  Contribution of AADAC to vicagrel hydrolysis: 53.1%
[10]; oral, same dose
  Production of H4 from vicagrel relative to clopidogrel: four to six times higher
[10]
  Production of 2-oxo-clopidogrel from vicagrel relative to clopidogrel: about six times
[11]; human, recombinant human AADAC, pH 7.4
  microsomal CLint: 39000 ± 3100 µL/min/mg
[11]; recombinant AADAC
  Hydrolase activity (vicagrel), Vrec-AADAC: 21.8 nmol/min/mg
[11]; recombinant AADAC 0.015 mg/mL, 2 min
  Vmax of vicagrel hydrolysis: 381.7 ± 24.7 nmol/min/mg protein
